According to PubChem BioAssay AID328 (DTP/NCI, 2004):
Values joined by “and” are separate entries in the source; they are usually repeats but may differ in a detail not shown here. Identical values can stand only once. Inconclusive results and toxic doses are left out. How the source made its calls: active means survival T/C of 150% or more; inactive means T/C below 125% in these data.

System: BDF1 mice, P388 leukemia ip, median survival T/C
Test: NCI In Vivo Anticancer Drug Screen. Data for tumor model P388 Leukemia (intraperitoneal) in B6D2F1 (BDF1) mice
Settings: endpoint: median survival time, higher = longer survival
How it was run: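 In tumour-bearing mice, survival after compound treatment is set against the vehicle group and given as a quotient.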

Measured: T/C

Cc1c(N)nc([C@H](CC(N)=O)NC[C@H](N)C(N)=O)nc1C(=O)N[C@H](C(=O)N[C@H](C)[C@@H](O)[C@H](C)C(=O)N[C@H](C(=O)NCCc1nc(-c2nc(C(=O)NCCC[S+](C)C)cs2)cs1)[C@@H](C)O)C(OC1OC(CO)C(O)C(O)C1OC1OC(CO)C(O)C(OC(N)=O)C1O)c1cnc[nH]1 (stereo partly drawn)
inactive: dose: 0.12 mg/kg/injection, schedule: Q03HX040 (ip), vehicle: saline 101 % of control | dose: 0.5 mg/kg/injection, schedule: Q03HX040 (ip), vehicle: saline 93 % of control | dose: 1.0 mg/kg/injection, schedule: Q01DX005 (ip), vehicle: water 105 % of control | dose: 1.0 mg/kg/injection, schedule: Q01DX009 (ip), vehicle: water 109 % of control | dose: 2.0 mg/kg/injection, schedule: Q01DX009 (ip), vehicle: saline 112 % of control and 115 % of control | dose: 2.0 mg/kg/injection, schedule: Q01DX009 (ip), vehicle: water 109 % of control | dose: 2.0 mg/kg/injection, schedule: Q03HX008 (ip), vehicle: saline 113 % of control | dose: 2.0 mg/kg/injection, schedule: Q03HX016 (ip), vehicle: saline 109 % of control | dose: 2.88 mg/kg/injection, schedule: Q01DX009 (ip), vehicle: saline 103 % of control | dose: 4.0 mg/kg/injection, schedule: Q01DX005 (ip), vehicle: water 107 % of control | dose: 4.0 mg/kg/injection, schedule: Q01DX009 (ip), vehicle: saline 109 % of control and 110 % of control | dose: 4.0 mg/kg/injection, schedule: Q01DX009 (ip), vehicle: water 98 % of control | dose: 4.0 mg/kg/injection, schedule: Q03HX008 (ip), vehicle: saline 109 % of control and 118 % of control | dose: 4.0 mg/kg/injection, schedule: Q03HX024 (ip), vehicle: saline 118 % of control | dose: 4.0 mg/kg/injection, schedule: Q04DX003 (ip), vehicle: other 124 % of control | dose: 4.8 mg/kg/injection, schedule: Q01DX009 (ip), vehicle: saline 115 % of control | dose: 8.0 mg/kg/injection, schedule: Q01DX005 (ip), vehicle: water 107 % of control | dose: 8.0 mg/kg/injection, schedule: Q01DX009 (ip), vehicle: water 100 % of control | dose: 8.0 mg/kg/injection, schedule: Q03HX008 (ip), vehicle: saline 118 % of control | dose: 8.0 mg/kg/injection, schedule: Q03HX016 (ip), vehicle: saline 122 % of control | dose: 8.0 mg/kg/injection, schedule: Q03HX024 (ip), vehicle: saline 104 % of control and 109 % of control | dose: 8.0 mg/kg/injection, schedule: Q04DX003 (ip), vehicle: other 108 % of control | dose: 10.8 mg/kg/injection, schedule: Q01DX009 (ip), vehicle: saline 110 % of control | dose: 12.0 mg/kg/injection, schedule: Q01DX009 (ip), vehicle: saline 117 % of control | dose: 13.0 mg/kg/injection, schedule: Q01DX001 (ip), vehicle: saline 113 % of control | dose: 13.33 mg/kg/injection, schedule: Q01DX009 (ip), vehicle: saline 119 % of control | dose: 13.33 mg/kg/injection, schedule: Q04DX003 (ip), vehicle: saline 100 % of control | dose: 16.0 mg/kg/injection, schedule: Q01DX001 (ip), vehicle: saline 118 % of control and 122 % of control | dose: 16.0 mg/kg/injection, schedule: Q01DX005 (ip), vehicle: water 109 % of control | dose: 16.0 mg/kg/injection, schedule: Q01DX009 (ip), vehicle: water 86 % of control | dose: 16.0 mg/kg/injection, schedule: Q03HX008 (ip), vehicle: saline 90 % of control and 122 % of control | dose: 16.0 mg/kg/injection, schedule: Q03HX016 (ip), vehicle: saline 104 % of control | dose: 18.0 mg/kg/injection, schedule: Q01DX009 (ip), vehicle: saline 95 % of control and 98 % of control | dose: 20.0 mg/kg/injection, schedule: Q01DX001 (ip), vehicle: saline 113 % of control | dose: 22.22 mg/kg/injection, schedule: Q04DX003 (ip), vehicle: saline 106 % of control | dose: 30.0 mg/kg/injection, schedule: Q01DX001 (ip), vehicle: saline 109 % of control | dose: 30.0 mg/kg/injection, schedule: Q01DX009 (ip), vehicle: saline 86 % of control | dose: 32.0 mg/kg/injection, schedule: Q01DX001 (ip), vehicle: saline 122 % of control | dose: 32.0 mg/kg/injection, schedule: Q04DX003 (ip), vehicle: other 101 % of control | dose: 32.0 mg/kg/injection, schedule: Q04DX003 (ip), vehicle: saline 100 % of control | dose: 32.0 mg/kg/injection, schedule: Q08DX002 (ip), vehicle: saline 109 % of control | dose: 37.0 mg/kg/injection, schedule: Q04DX003 (ip), vehicle: saline 110 % of control | dose: 44.0 mg/kg/injection, schedule: Q01DX001 (ip), vehicle: saline 113 % of control and 118 % of control | dose: 61.7 mg/kg/injection, schedule: Q04DX003 (ip), vehicle: saline 105 % of control | dose: 64.0 mg/kg/injection, schedule: Q01DX001 (ip), vehicle: saline 104 % of control and 118 % of control | dose: 64.0 mg/kg/injection, schedule: Q01DX009 (ip), vehicle: saline 95 % of control | dose: 64.0 mg/kg/injection, schedule: Q04DX003 (ip), vehicle: saline 109 % of control | dose: 64.0 mg/kg/injection, schedule: Q08DX002 (ip), vehicle: saline 122 % of control | dose: 67.0 mg/kg/injection, schedule: Q01DX001 (ip), vehicle: saline 113 % of control | dose: 100.0 mg/kg/injection, schedule: Q01DX001 (ip), vehicle: saline 108 % of control | dose: 128.0 mg/kg/injection, schedule: Q01DX001 (ip), vehicle: saline 118 % of control | dose: 128.0 mg/kg/injection, schedule: Q04DX003 (ip), vehicle: saline 100 % of control | dose: 128.0 mg/kg/injection, schedule: Q08DX002 (ip), vehicle: saline 104 % of control and 118 % of control
